According to ChEMBL document CHEMBL5058564, “EUbOPEN Chemogenomics Library 2 (Incucyte)” (2022):

Legend:
Assay type in all cases: toxicity, cell-based
HEK-293T = assay: Incucyte cell viability with HEK293T; settings: human, 10 µM, compound concentration 10 uM
Fibroblast = assay: Incucyte cell viability with human fibroblast; settings: 10 µM, compound concentration 10 uM
U2OS = assay: Incucyte cell viability with U2OS; settings: human, 10 µM, compound concentration 10 uM
[1] = 0 h, replicate number 2, timepoint 0 hours
[2] = 6 h, replicate number 2, timepoint 6 hours
[3] = 12 h, replicate number 1, timepoint 12 hours
[4] = 12 h, replicate number 2, timepoint 12 hours
[5] = 18 h, replicate number 1, timepoint 18 hours
[6] = 18 h, replicate number 2, timepoint 18 hours
[7] = 24 h, replicate number 1, timepoint 24 hours
[8] = 24 h, replicate number 2, timepoint 24 hours
[9] = 0 h, replicate number 1, timepoint 0 hours
[10] = 6 h, replicate number 1, timepoint 6 hours
Also: unitless GR value; below 1 slowed growth and below 0 cell loss.

SMILES	Growth Rate (HEK-293T; [1])	Growth Rate (HEK-293T; [3])	Growth Rate (HEK-293T; [4])	Growth Rate (HEK-293T; [5])	Growth Rate (HEK-293T; [6])	Growth Rate (HEK-293T; [7])	Growth Rate (HEK-293T; [8])	Growth Rate (Fibroblast; [9])	Growth Rate (Fibroblast; [1])	Growth Rate (Fibroblast; [3])	Growth Rate (Fibroblast; [4])	Growth Rate (Fibroblast; [5])	Growth Rate (Fibroblast; [6])	Growth Rate (Fibroblast; [7])	Growth Rate (Fibroblast; [8])	Growth Rate (U2OS; [9])	Growth Rate (U2OS; [10])	Growth Rate (U2OS; [3])	Growth Rate (U2OS; [5])	Growth Rate (HEK-293T; [10])	other results
Cc1ccc(OCC(O)C(C)NC(C)C)c2c1CCC2.Cl (stereo unspecified)	0.95	0.49	0.63	0.16	0.65	0.03	0.62	0.41	0.52	0.74	0.32	0.5	0.54	0.38	0.51	0.09	1	0.83	0.98	–	Growth Rate (HEK-293T; [2]): 0.7; Growth Rate (Fibroblast; [2]): 0.19; Growth Rate (U2OS; [1]): 0.28; Growth Rate (U2OS; [2]): 0.87
O=C(O)CCCCCC[C@H]1C(=O)NC(=O)N1CCC(O)C1CCCCC1 (stereo partly specified)	0.31	0.73	0.68	0.88	0.81	0.91	–	0.25	0.26	–	0.91	–	–	–	–	-0.44	0.65	–	0.81	0.84	Growth Rate (HEK-293T; [2]): 0.93
CCc1nnc(NS(=O)(=O)c2ccc(NC(=S)NC(=O)/C=C/c3ccc(F)cc3)cc2)s1	0.59	0.53	–	0.58	–	0.67	0.73	–	-0.01	0.7	0.53	–	0.53	0.62	0.61	0.07	0.55	0.77	0.81	0.64	Growth Rate (Fibroblast; [2]): 0.82; Growth Rate (U2OS; [1]): -0.11; Growth Rate (U2OS; [6]): 0.86; Growth Rate (U2OS; [7]): 0.86
Oc1c(CN2CCN(c3ccccn3)CC2)cc(Cl)c2cccnc12	-1	-0.03	–	0.11	–	0.17	–	–	–	–	–	–	–	0.65	0.89	0.03	0.19	0.01	-0.04	-0.48	Growth Rate (U2OS; [1]): -0.6; Growth Rate (U2OS; [2]): -0.14; Growth Rate (U2OS; [4]): 0.21; Growth Rate (U2OS; [6]): 0.1; Growth Rate (U2OS; [7]): -0.07; Growth Rate (U2OS; [8]): 0.08
O=C(O)CCC/C=C\C[C@H]1C(=O)C[C@@H](O)[C@@H]1/C=C/[C@@H](O)CCc1ccccc1	-0.05	0.68	–	1	–	0.89	–	0.15	-0.3	0.4	–	0.74	–	0.66	–	0.49	0.41	0.52	0.77	0.8	Growth Rate (Fibroblast; [10]): 0; Growth Rate (U2OS; [7]): 0.97
O=C(c1cc(C2CC2)on1)N(C1CCCCC1)C1CCCCC1	0.08	0.55	0.56	0.64	0.68	0.74	0.67	0.81	–	0.15	0.97	0.82	0.86	0.78	0.8	0.64	0.89	0.7	–	0.27	Growth Rate (Fibroblast; [10]): -0.36; Growth Rate (U2OS; [2]): 0.71; Growth Rate (U2OS; [8]): 1
